Results published in PMC11481179, “Development and Application of Reversible and Irreversible Covalent Probes for Human and Mouse Cathepsin‐K Activity Detection, Revealing Nuclear Activity” (Advanced Science, 2024).

Assays:
U-87 MG cells = assay: Cell viability assay (methylene blue); type: cell-based, human; conditions: 48 h incubation
Procedure: U-2 OS, U-87 MG, and enriched monocyte cells were grown at 370 C with 5% of CO2 in the
respective medium as described previously. Cells were seeded (1500 cells/well in 96 wells
plate) one day before the incubation with indicated probe or inhibitor at various concentrations.
After 48 h cells were fixed, and viability was measured by quantitative colorimetric assay using
methylene blue according to the procedure reported by Ben-Bassat et al. The data were
expressed as a percentage of control; data represent the mean of 2 experiments with triplicates
for each treatment (± standard deviation).
Fluorescent imaging of CTSK activity in lung tissue: Freshly resected human lung cancer and
normal lung tissues or mouse normal lung and primary lung cancer were embedded in OCT,
frozen in liquid nitrogen, and kept at - 80° C. Tissues were sectioned into 10 μm thick slices
using a cryostat (Leica). The slides were defrosted and washed with 1X PBS. Then the slides
were pretreated with DMSO or GD30 (5 µM) in buffer acetate for 1 h at 37° C. Afterward,
GD32 (0.75uM) or DMSO in buffer acetate were applied to the slides for 4 h at 37° C. Three
short washes with 1X PBS were done and the slides were left in 1X PBS for overnight
incubation at 4° C. The next day, slides were mounted with DAPI-Fluoromount-G® before
visualization by confocal microscopy. Olympus FV10i was used for human samples, whereas
Zeiss was used for mouse samples.
Details of the synthesis of the compounds
Synthesis of Compound (2)

[1] = target: T1, endogenous CTSK in intact U-2 OS cells (Homo sapiens, UniProt P43235); assay: Labeling of endogenous CTSK in intact cells, fluorescent SDS-PAGE; type: cell-based; conditions: inhibitor 5 µM, 2 h, then GD32 5 µM
T1 construct: ability to label endogenous CTSK activity in intact cells; endogenous in cells; host or cells: U-2 OS
T1 sequence (P43235 115-329): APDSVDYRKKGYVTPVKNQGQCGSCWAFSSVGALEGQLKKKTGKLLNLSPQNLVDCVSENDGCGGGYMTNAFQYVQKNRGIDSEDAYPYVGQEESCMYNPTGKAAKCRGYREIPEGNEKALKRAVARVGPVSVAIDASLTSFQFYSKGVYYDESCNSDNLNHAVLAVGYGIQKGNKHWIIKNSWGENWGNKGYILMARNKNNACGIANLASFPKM
Procedure: To test probe selectivity and the ability to label endogenous CTSK activity in intact cells, three cell lines were selected: human osteosarcoma MG‐63 and U‐2 OS, and human glioblastoma U‐87 MG; all cell lines express CTSK along with other lysosomal cathepsins.^[ [44] ^] First, the ABPs were incubated with intact U‐2 OS cells for different durations of time, and the probe selectivity toward CTSK was examined, with a pan cathepsin ABP, GB123, used as a control that labels CTS B, K, L, and S in cells. After cell lysis, the probe‐labeled enzymes were resolved and detected by a fluorescent scan of the SDS‐PAGE. […] Specifically, intact MG‐63 cells required a 5 h incubation (Figure 2b,c), while U‐87 MG cells required a 2 h incubation (Figure 2d).
Figure 2 Labeling of endogenous CTSK in intact cells. a) U2‐OS cells were treated with DMSO or 5 µM of the indicated inhibitors in culture medium, for 2 h, then with indicated ABPs [5 µM] in a culture medium for indicated times, followed by cell lysis, SDS‐PAGE separation, and fluorescent scanning of the gel at 635/670 nm. An immunoblot of CTSK of the same gel is presented below. b) Intact MG63 cells were treated with GD32 5 µM in the culture media for indicated times, cell lysates were analyzed as in a. CTSK immunoblot is presented, pro and mature CTSK are indicated by arrows. c) MG63 cells and d) U87MG cells were treated with DMSO, or 5 µM of indicated inhibitors in culture medium for 2 h, followed by incubation with 5 µM of indicated probes for 5 h (GD32 and GD42) and 2 h (GB123), cell lysates were analyzed by fluorescent SDS PAGE as in a. […] In (c) a CTSK immunoblot of a representative MG63 lane on the right. e) Labeling of active mature CTSK by GD32 in A549 and U2‐0S cells in externally adjusted different pH. Cells were incubated with 5 µM GD32 for 24 h in growth media at indicated pHs, prior to the cell lysis, cell lysates were analysed as in a. CTSK immunoblot below. f) A549 cells were incubated with increasing concentrations of GD30 for 2 h at pH = 5, followed by the incubation with 5 µM GD32 for 24 h prior to the cell lysis, cell lysates were analyzed as in a. g) Intact U‐87 MG cells or U‐87 MG cell lysates were treated with 5 µM GD32 for 2 h, the intact cells were then lysed and all lysates were analyzed as in (a). h) Intact or lysates of U‐87MG were treated with GD32 for 2 h then immunoprecipitation was done with an anti‐CTSK antibody. Input (I), immunoprecipitation (IP), and output (O) were separated by a 14% SDS‐PAGE and scanned for fluorescence. The gel was then blotted and reacted with an anti‐cystatin B antibody below. ODN (Odanacatib), GB111 (GB111‐NH2), mCTSK (mature CTSK). […]
deoxycholate). After adding sample buffer, samples were boiled for 10 minutes, and analyzed […]
lysates were analyzed as described above. […]

CTSK = target: T2, CTSK (Homo sapiens, UniProt P43235); assay: In vitro kinetic evaluation of cathepsin inhibition, fluorescent substrate Z-FR-AMC; type: biochemical
T2 sequence (P43235 115-329): T1 sequence (P43235 115-329)
Excerpt: (§1) used for TLC. Phosphate Buffer Saline (PBS) was purchased from Biological Industries (pH = […]
(§2) 7.4) and was used as a buffer system in all experiments if not indicated otherwise. […]
(§3) Recombinant human CTSB, CTSK, CTSL, and CTSS were supplied by B. Turk (J.
(§4) Stefan Institute).[1] […]
Fluorescent gels were scanned by a Typhoon FLA 9500 flatbed laser scanner (GE Healthcare […]
Bio-Sciences AB, Uppsala, Sweden). BioRad ChemiDox XRS+ was used for western blot […]
analysis. Olympus FV10i inverted microscope (Tokyo,Japan) with Fluoview software or Zeiss […]
Confocal LSM 980 with Airyscan (Germany) with Zen software were used for confocal […]
(§5) In vitro kinetic evaluation of labeling recombinant cathepsins:
(§6) Reactions were monitored for 30 min at 37° C in 96-well black flat-bottom microplates […]
(Greiner, Germany) using Tecan […] M1000 pro plate reader (Tecan, Switzerland), […]
(§7) substrates Z-RR-AMC (CTSL) or Z-FR-AMC (CTSS, CTSB and CTSK), and excitation and […]
emission wavelengths of 370 and 460 nm, respectively. Cathepsin concentrations in the assay were 0.4 nM (CTSK) or 5 nM (CTSS, CTSB, and CTSL). The buffer was 100 mM Na2HPO4/NaH2PO4, 50 mM NaCl, 5 mM DTT, 0,1% Peg-6000, pH 6. For irreversible inhibitors, reaction data were fitted to the one-phase association formula in GraphPad Prism 9 software: Y=Y0 + (Plateau-Y0)*(1-exp(-K*X)) where in this case Y0 and Y represent fluorescence signal at times 0 and t, respectively, K represent the observed reaction rate kobs and X the inhibitor concentration. Inactivation rates at each inhibitor concentration were […]
maximal rate of inactivation (kinact) was obtained as the asymptote from equation […]
for each X, and Kiapp is the apparent inhibition constant. Ki values were calculated from IC50 or from Kiapp using formulas Ki = Kiapp / (1 + Km/S) and IC50 = E0/2 + Kiapp, where Km stands for Michalis-Menten constant, S for substrate concentration and E0 for cathepsin concentration.
(§8) The highest inhibitor concentrations in the assay were 50 µM. Measurements were performed in several independent duplicates. Average values are presented with standard deviations. […]

CTSS = CTSS (Homo sapiens, UniProt P25774); assay: as above; type: biochemical
CTSS, sequence (P25774 115-331): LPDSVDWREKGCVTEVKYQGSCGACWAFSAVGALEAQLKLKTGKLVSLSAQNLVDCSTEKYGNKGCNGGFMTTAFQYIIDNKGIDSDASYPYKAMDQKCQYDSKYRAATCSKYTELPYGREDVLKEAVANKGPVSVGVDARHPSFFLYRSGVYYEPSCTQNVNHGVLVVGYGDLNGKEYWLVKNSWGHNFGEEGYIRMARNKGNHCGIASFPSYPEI
Procedure: as §1, §2, §3, §4, §5, §6
(Greiner, Germany) using Tecan INFINITE M1000 pro plate reader (Tecan, Switzerland), […]
as §7
emission wavelengths of 370 and 460 nm, respectively. Cathepsin concentrations in the assay were 0.4 nM (CTSK) or 5 nM (CTSS, CTSB, and CTSL). The buffer was 100 mM Na2HPO4/NaH2PO4, 50 mM NaCl, 5 mM DTT, 0,1% Peg-6000, pH 6. For irreversible inhibitors, reaction data were fitted to the one-phase association formula in GraphPad Prism 9 software: Y=Y0 + (Plateau-Y0)*(1-exp(-K*X)) where in this case Y0 and Y represent fluorescence signal at times 0 and t, respectively, K represent the observed reaction rate kobs and X the inhibitor concentration. Inactivation rates at each inhibitor concentration were obtained by subtracting the inactivation observed in the control sample: kobs – kctrl. The maximal rate of inactivation (kinact) was obtained as the asymptote from equation Y = kinact*X/(Kiapp + X) where X is inhibitor concentration, Y is the observed inactivation rate for each X, and Kiapp is the apparent inhibition constant. Ki values were calculated from IC50 or from Kiapp using formulas Ki = Kiapp / (1 + Km/S) and IC50 = E0/2 + Kiapp, where Km stands for Michalis-Menten constant, S for substrate concentration and E0 for cathepsin concentration.
as §8

effect of inhibitor preincubation on GD32-labeled CTSK band [1] | mode of inhibition (CTSK; CTSK) | IC50 (CTSK; CTSK 0.4 nM, tight binding) [nM] | mode of inhibition (CTSS; CTSS) | IC50 (CTSS; CTSS 5 nM) [nM] | Structure (SMILES) | cytotoxicity (U-87 MG cells)
depletion of the CTSK‐specific band | – | – | – | – | Cc1cccc(C)c1C(=O)OCC(=O)[C@H](CCCCN)NC(=O)[C@H](Cc1ccccc1)NC(=O)OCc1ccccc1 [GB111‐NH2, reference compound] | exhibited cytotoxicity
depletion of the CTSK‐specific band | Reversible [Tight binding] | 0.94 | Reversible | 140 | CC(C)(F)C[C@H](N[C@@H](c1ccc(-c2ccc(S(C)(=O)=O)cc2)cc1)C(F)(F)F)C(=O)NC1(C#N)CC1 [ODN, odanacatib, reference compound] | –
